Assay results: patent US8598146B2, “Methods for identifying modulators of protein kinase C-epsilon (PKCε) and method of treatment of aberrant glucose metabolism associated therewith” (Garvan Institute of Medical Research, priority 2003, dated 2013)

Assays:
[1] = system: pancreatic islets; experiment: glucose-stimulated insulin secretion from pancreatic islets with carbamylcholine (FIG. 13); type: cell-based, mouse; settings: 0.1 mM carbamylcholine with 20 mM glucose; islets from wild type and PKCε−/− mice
[2] = system: pancreatic beta cells; settings: 100 nM glyburide in the presence of 20 mM glucose; cited from earlier work

**Q.** For `C[N+](C)(C)CCOC(N)=O.[Cl-]` [carbamylcholine], which glucose-stimulated insulin secretion [1] is on record?
**A.** potentiation

**Q.** With `COc1ccc(Cl)cc1C(=O)NCCc1ccc(S(=O)(=O)NC(=O)NC2CCCCC2)cc1` [glyburide] as the compound, how does the insulin secretion [2] read?
**A.** enhances insulin secretion
